Patent US20110046385A1, “Polymorphs Of Prostaglandin Agonists And Methods For Making The Same” (priority 2007, published 2011)

Experiments:
[1] = tested on: rib fracture site; details: adult beagles, 0.2 mg injected into rib fracture sites twice a day for 10 days; cited from earlier work
[2] = tested on: tibia defect site; details: beagles, 0.2 mg/kg injected into tibia defect site twice a day for 10 days; cited from earlier work
[3] = tested on: alveolar bone in the mandible; details: dogs, local infusion for 3 weeks, 500 to 2000 μg per week; cited from earlier work
[4] = tested on: Bone Morphogenetic Protein 7 (BMP-7) expression in wild type 293S cells; assay: Kidney regeneration assay: BMP-7 expression (Northern blot) in wild type 293S cells; format: cell-based, human; details: parental 293S cell line, 10^-6M, RNA at 8, 16 and 24 hours
Description: (§1) Methods: 293S and EP2 293S cells are grown in Dulbecco's Modified Eagle medium (DMEM, Gibco, BRL; Gaithersburg, Md.). […] Cells are harvested and RNA is extracted at 8, 16 and 24 hours. Northern blot analysis of total RNA ([…]) is carried out by probing the blots with ^32P-labeled BMP-7 probe. The blots are normalized for RNA loading by hybridization with ^32P-labeled 18s ribosomal RNA probe. […] Given the known role of BMP-7 in kidney regeneration and the ability of an prostaglandin agonist to induce BMP-7 expression in 293S kidney cells in a time and receptor specific manner indicates a role for prostaglandin agonist in kidney regeneration.

[5] = tested on: Bone Morphogenetic Protein 7 (BMP-7) expression in 293S cells transfected with EP2; assay: Kidney regeneration assay: BMP-7 expression (Northern blot) in EP2 293S cells; format: cell-based, human; details: 10^-6M, RNA at 8, 16 and 24 hours
Description: as §1

[6] = tested on: trabecular bone in the tibial metaphysis; details: daily intraosseous injections into left tibia metaphysis for 14 days; cited from earlier work

SMILES	bone matrix formation at fracture site [1]	periosteal and cortical endosteal bone formation [2]	alveolar bone formation [3]	induction of BMP-7 expression [4]	induction of BMP-7 expression [5]	trabecular bone in the metaphysis [6]
CCCCC[C@H](O)/C=C/[C@H]1[C@H](O)CC(=O)[C@@H]1CCCCCCC(=O)O [PGE1, prostaglandin E1]	induced bone matrix formation on the periosteal envelope adjacent to the fracture site and its contralateral matching site	more periosteal and cortical endosteal bone formation, with an increased amount of osteoid present	dramatic, localized formation of alveolar bone			
CCCCC[C@H](O)/C=C/[C@H]1[C@H](O)CC(=O)[C@@H]1C/C=C\CCCC(=O)O [PGE2, prostaglandin E2]				generally not observed	induce the expression of BMP-7 in the EP2 293S cells in a time dependent manner	significant increase of trabecular bone in the metaphysis
